How the values were obtained:
[1] = tested on: thrombin-antithrombin-complexes (TAT), antithrombin III (ATIII); assay: Coagulation parameters in plasma three days after treatment; format: in vivo, mouse; details: tTF alone; plasma three days after i.v. treatment
TNFα = TNFα serum levels in treated animals; format: in vivo, mouse; details: tTF containing no endotoxin (n=6), 1, 2 and 24 hours
Protocol: Mice were closely observed after treatment for clinical signs of toxicity and clinical status was documented at defined time points (5 minutes, 10 minutes, 15 minutes, 30 minutes. 1 hour. 2 hours, 24 hours, 48 hours, 72 hours). Blood samples were taken from the tail vein at 1 hour, 2 hours and 24 hours to measure TNFα blood levels. Three days after treatment, the mice were anesthetized, blood samples were taken from the vena cava for coagulation tests, and an autopsy was performed to document any changes in gross pathology. Tumors, lymph node metastases and the major normal organs (heart, lung, brain, liver, kidney, colon, spleen, pancreas) were harvested and prepared for histological analysis.
TNFα levels in serum were determined using the Quantikine-M kit (R&D Systems, Minneapolis, Minn.) according to the manufacturer's instructions.

immobilized tTF = target: T1, immobilized tTF (Homo sapiens, UniProt P13726); assay: Real time binding of tTF to immobilized tTF (surface plasmon resonance); details: tTF 30 μg/ml alone or preincubated with endotoxin or factor VIIa
T1 construct: amino acid 1-219 of the mature protein; made in house; host or cells: E. coli

[2] = tested on: 2F2B mouse endothelial cells; assay: Binding of tTF to endothelial cells (FACS, cell bound coagulation assay); format: cell-based
Protocol: Cells were washed and coagulation factor mix (as described above) was added. S2765 substrate was added and Factor Xa generation was measured as described above.
2F2B cells were stimulated with LPS (20 μg/ml) or TNFα (500 U/ml) for 4 h at 37° C. […] Fluorescent cells were detected on a flow cytometer (Becton Dickinson, San Jose, Calif.).

F9 sarcoma = F9 sarcoma mouse model, tumor tissue necrosis; format: in vivo; details: tTF 4 μg, endotoxin 0.5 μg; three days; spontaneous necrosis 40-50%
Protocol: 1×10^7 F9 sarcoma cells were injected subcutaneously into the right flank of balb/c nude mice. Subcutanous tumors were measured with a caliper in three perpendicular directions a, b, and c and volumes calculated according to the formula V=π/6×a×b×c. Treatment was initiated when subcutaneous tumors reached a size of 150 to 300 μl.
Reagents were administered into the lateral tail vein.
Mice were closely observed after treatment for clinical signs of toxicity and clinical status was documented at defined time points. Three days after treatment, mice were sacrificed and tumors were harvested. Paraffin embedded tissues were stained with hematoxilin and eosin (H&E). Tissue sections were analyzed on a light microscope by two independent investigators and histological findings were documented. Tumor sections with necrotic areas were scanned with a GS-700 imaging densitometer (Biorad, Hercules, Calif.) and areas of necrosis were calculated as % of total section area.

[3] = tested on: C1300 Muγ mouse neuroblastoma; assay: C1300 (Muγ) tumor model, coaguligand and tTF: thrombosis and anti-tumor effects; format: in vivo
A20 lymphoma cells = assay: In vitro coagulation assay on A20 cells; format: cell-based, mouse
[4] = tested on: C1300 mouse neuroblastoma; assay: In vivo tumor thrombosis, C1300
Description: (§1) Tumor test systems were of four types: i) 3LL mouse lung carcinoma growing subcutaneously in C57BL/6 mice; ii) C1300 mouse neuroblastoma growing subcutaneously in BALB/c nu/nu mice; iii) HT29 human colorectal carcinoma growing subcutaneously in BALB/c nu/nu mice; and iv) C1300 Muγ mouse neuroblastoma growing subcutaneously in BALB/c nu/nu mice. The C1300 Muγ tumor is an interferon-y secreting transfectant derived from the C 1300 tumor (Watanabe et al., 1989).
(§2) To establish tumors, 10^6 to 1.5×10^7 tumor cells were injected subcutaneously into the right anterior flank of the mice. When tumors had grown to various sizes, mice were randomly assigned to different study groups. […] Fab′, or bispecific antibody. Other mice received equivalent quantities IgG, Fab′ or bispecific antibody alone. The injections were performed slowly into one of the tail veins over approximately 45 seconds, usually followed by 200 μl of saline.
(§3) Twenty-four hours after being injected with tTF or immunoglobulin-tTF conjugates, the mice were anesthetized with metophane and were exsanguinated by perfusion with heparinized saline. Tumors and normal tissues were excised and immediately fixed in 3% (v/v) formalin. Paraffin sections were cut and stained with hematoxylin and eosin. Blood vessels having open lumens containing erythrocytes and blood vessels containing thrombi were counted. […]

3LL mouse lung carcinoma = assay: In vivo tumor thrombosis, 3LL; details: large (>800 mm^3) tumors
Description: as §1, §2, §3

[5] = tested on: H460 human non-small cell lung carcinoma; assay: Anti-tumor effects, H460; format: in vivo, mouse; details: second treatment at 900 mm^3
Protocol: The tumor test systems were: i) L540 human Hodgkin's disease tumors growing in SCID mice; ii) C1300 Muγ (interferon-secreting) neuroblastoma growing in nu/nu mice; iii) H460 human non-small cell lung carcinoma growing in nu/nu mice. To establish solid tumors, 1.5×10^7 tumor cells were injected subcutaneously into the right anterior flank of SCID or BALB/c nu/nu mice (Charles River Labs., Wilmingham, Mass.). When the tumors had grown to various diameters, mice were assigned to different experimental groups, each containing 4 to 9 mice.
Other mice received equivalent quantities of bispecific antibody alone. The injections were performed over ˜45 seconds into one of the tail veins, followed by 200 μl of saline. The infusions were repeated six days later. Perpendicular tumor diameters were measured at regular intervals and tumor volumes were calculated.

[6] = tested on: HT29 human colorectal carcinoma; assay: HT29 xenograft, tumor growth and necrosis after tTF constructs and Factor VIIa; format: in vivo, mouse
[7] = tested on: L540 human Hodgkin's tumors; assay: Anti-VCAM-1•tTF coaguligand in L540 tumor-bearing mice; format: in vivo, mouse
Protocol: Before coaguligand injection, tumors were viable, having a uniform morphology lacking regions of necrosis. […] Within four hours of coaguligand injection, 40-70% of blood vessels were thrombosed, despite the initial staining of only 20-30% of tumor blood vessels. The thrombosed vessels contained occlusive platelet aggregates, packed erythrocytes and fibrin. In several regions, the blood vessels had ruptured, spilling erythrocytes into the tumor interstitium.
The drug was administered i.v. 3 times at intervals of 4 days.

T1 sequence (P13726 33-251): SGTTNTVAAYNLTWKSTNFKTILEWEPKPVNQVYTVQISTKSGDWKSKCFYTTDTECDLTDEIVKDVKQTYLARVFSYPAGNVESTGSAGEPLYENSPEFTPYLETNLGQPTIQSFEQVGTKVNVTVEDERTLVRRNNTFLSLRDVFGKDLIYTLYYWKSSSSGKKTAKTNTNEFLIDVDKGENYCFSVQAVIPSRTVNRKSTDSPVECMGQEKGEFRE

## tTF: extracellular domain of the mature Tissue Factor protein (amino acid 1-219), recombinant truncated human Tissue Factor
[1]
  TAT: 25.4 ng/mL
TNFα
  TNFα serum level: could not be detected
Immobilized tTF
  binding to immobilized tTF: did not bind to or homodimerize with immobilized tTF
[2]
  binding to endothelial cells expressing tissue factor: no binding
F9 sarcoma
  tumor tissue necrosis: 45%
[3]; 24 hours after injection of tTF219
  thrombosis of tumor vessels: practically all vessels in all regions of the tumor were thrombosed
[3]; paraffin sections 30 minutes to 24 hours after administration
  thrombi or morphological abnormalities in normal organs: neither thrombi, nor histological or morphological abnormalities were visible
[3]; small (<500 mm^3) tumors
  effect on tumor vessels: largely unaffected
[3]; tTF alone or mixed with control bispecific antibodies
  tumor growth versus antibodies or saline alone: grew significantly more slowly
A20 lymphoma cells; 0.1 nM Factor VIIa
  increase in coagulation-inducing potency: 2-5 fold
A20 lymphoma cells; 10^−10 M tTF219, 13.5 nM Factor VIIa
  plasma coagulation time: 20 s
A20 lymphoma cells; 10^−10 M tTF219, absence of Factor VIIa
  plasma coagulation time: 60 s
A20 lymphoma cells; localized on A20 cells via bispecific antibody B21-2/10H10
  concentration at which plasma coagulated in 50 seconds: 3 nM
A20 lymphoma cells; tTF bound to A20 cells by B21-2/10H10, mouse plasma, untreated cells 164 seconds
  time to visible fibrin strands: 36 s
[4]; large tumors (>1000 mm^3), 24 hours after injection
  thrombosis of tumor vessels: virtually all vessels were thrombosed
[4]; small (<500 mm^3) tumors
  effect on tumor vessels: largely unaffected
3LL mouse lung carcinoma
  tumor vessels thrombosed, average: 62%
[5]
  tumor volume after second treatment: 550 mm^3
[6]; large (1200 mm^3) tumors
  duration of discontinued growth after treatment: about 7 days
[6]; mouse, in vivo, iv
  average area of necrosis in tumor sections: some necrosis
[7]; equivalent quantities
  control reagents that caused thrombosis: None
[7]; i.v. 3 times at intervals of 4 days
  effect on tumor growth: did not affect tumor growth

Reference: patent US20030211075A1 (priority 2001, published 2003)
